Test results published in patent publication US9082528B2, “Method for making carbon nanotube-loaded electrode, carbon nanotube-loaded electrode made by the method, and applications thereof” (priority 2011, dated 2015).

Test system: acetylcholine esterase (AChE)
Assay: Electrochemical (CV) inhibition of AChE activity on AChE/ChO/POD/CNT/DEN(PtNP)s-loaded SPCGC electrode
Type: biochemical
Conditions: for I x/Io: anodic peak current, 10 mM phosphate buffer pH 7.4 with ACh
Protocol: AChE, ChO and POD enzymes were adsorbed on CNT/DEN(PtNP)s-loaded SPCGC electrode. The aqueous solution containing AChE/ChO/POD was dropped on the CNT/DEN(PtNP)s-loaded SPCGC surface and the adsorption was allowed to occur for 24 hours. The AChE-ChO-POD-adsorbed CNT/DEN(PtNP)s-loaded (AChE/ChO/POD/CNT/DEN(PtNP)s-loaded) SPCGC DEP chip was stored at 4° C. till use.
Electrochemical detection of a DZN compound on the AChE/ChO/POD/CNT/DEN(PtNP)s-loaded SPCGC electrode was performed on a CV (a Hokuto-Denko HZ-3000) apparatus in the potential range of −0.6 to 1 V at a scan rate of 20 mVs^−1 in a phosphate buffer solution. All the measurements were carried out at room temperature in 2 cm^3 of a test solution, which has to cover the circular working electrode area of the sensors supported vertically during the CV measurement. The anodic oxidation peak at 0.06-0.1 V was used to evaluate the inhibition of AChE activity by DZN. The enzyme inhibition was calculated according to the following equation (Equation 1) (Dounin et al., Analytica Chimica Acta 2010, 669, 63-67): % inhibition=100(Io−Ix)/Io [Equation 1], wherein Io is the anodic peak current of oxidation at 0.06-0.1 V of a control sample in the absence of DZN, while Ix refers to the peak current of DZN-containing samples.
For the electrochemical detection of DZN compound, CNT/DEN(PtNP)s hybrids at M:D 0.4:1 was fabricated onto the SPCGC electrode. Then, an AChE/ChO/POD/CNT/DEN(PtNP)s-loaded SPCGC biosensor was developed by loading 10 mm^3 of 2.21 U of AChE, 4.3 U of ChO and 44.7 U of POD on the CNT/DEN(PtNP)s-loaded SPCGC electrode. The bioactivity of the AChE/ChO/POD/CNT/DEN(PtNP)s-loaded SPCGC biosensor was investigated by CV at room temperature.
The approach for determination of one (DZN) of organophosphate pesticides by this biosensor is based on the inhibition of AChE activity. In the absence of DZN, AChE hydrolyzes Ach to acetic acid and choline (Ch) (Lin et al., Electroanalysis, 2004, 16(1-2), 145-149):
The inhibition of AChE activity by DZN was determined by measuring the oxidation or reduction current of H2O2 which is correlated to the concentration of Ch produced by AChE.
This anodic oxidation peak is attributed to the oxidation of hydrogen peroxide (H2O2) generated from the enzymatic reaction of AChE and ChO. The peak potential of H2O2 oxidation by the present electrode was lower than by an AChE/ChO/CNT electrode (0.50 V) (Lin et al., Electroanalysis, 2004, 16(1-2), 145-149). […] Meanwhile, a very small reduction peak around −0.2 V was also observed at only the first CV scan. This peak is attributed to the reduction of the generated H2O2 by POD. […] Therefore, the inhibition of AChE by DZN can be determined by the decrease in the oxidation current at 0.09 V.
The obtained currents of anodic oxidation peak were utilized to evaluate the enzyme activity, […], and the inhibition value, (Io−Ix)/Io, where Io and Ix are current densities in ACh solutions without and with DZN.

CCOP(=S)(OCC)Oc1cc(C)nc(C(C)C)n1 [DZN, O,O-diethyl 0-2-isopropyl-6-methyl(pyrimidine-4-yl)phosphorothioate]
% Enzyme Activity (DZN 0.05 ppm): 78.6% | % Inhibition (DZN 0.05 ppm): 21.4% | [Io-Ix]/Io (DZN 0.05 ppm): 0.214 | I x/Io (DZN 0.05 ppm): 0.785 | % Enzyme Activity (DZN 0.1 ppm): 59.1% | % Inhibition (DZN 0.1 ppm): 40.9% | [Io-Ix]/Io (DZN 0.1 ppm): 0.409 | I x/Io (DZN 0.1 ppm): 0.590 | % Enzyme Activity (DZN 0.5 ppm): 52.5% | % Inhibition (DZN 0.5 ppm): 47.6% | [Io-Ix]/Io (DZN 0.5 ppm): 0.475 | I x/Io (DZN 0.5 ppm): 0.524 | % Enzyme Activity (DZN 1 ppm): 17.2% | % Inhibition (DZN 1 ppm): 82.8% | [Io-Ix]/Io (DZN 1 ppm): 0.828 | I x/Io (DZN 1 ppm): 0.171 | % Enzyme Activity (DZN 5 ppm): 23.2% | % Inhibition (DZN 5 ppm): 76.8% | [Io-Ix]/Io (DZN 5 ppm): 0.768 | I x/Io (DZN 5 ppm): 0.231 | % Enzyme Activity (DZN 10 ppm): 13.4% | % Inhibition (DZN 10 ppm): 86.6% | [Io-Ix]/Io (DZN 10 ppm): 0.866 | I x/Io (DZN 10 ppm): 0.133
